Source: patent publication US9505781B2, “Compositions comprising thienopyrimidine and thienopyridine compounds and methods of use thereof” (The Regents of the University of Michigan, priority 2013, dated 2016)
pIC50: −log10 of the molar value.

Legend:
[1] = molecular target: T1, menin-MLL-AF9 interaction (Homo sapiens, UniProt O00255); test: Co-Immunoprecipitation (co-IP) in HEK293 cells transfected with MLL-AF9; assay type: cell-based; conditions: HEK293 cells transfected with MLL-AF9, FIG. 2
T1 construct: performed in HEK293 cells transfected with MLL-AF9; endogenous in cells; host or cells: HEK293 cells (transfected with MLL-AF9)
T1 sequence (O00255 1-610): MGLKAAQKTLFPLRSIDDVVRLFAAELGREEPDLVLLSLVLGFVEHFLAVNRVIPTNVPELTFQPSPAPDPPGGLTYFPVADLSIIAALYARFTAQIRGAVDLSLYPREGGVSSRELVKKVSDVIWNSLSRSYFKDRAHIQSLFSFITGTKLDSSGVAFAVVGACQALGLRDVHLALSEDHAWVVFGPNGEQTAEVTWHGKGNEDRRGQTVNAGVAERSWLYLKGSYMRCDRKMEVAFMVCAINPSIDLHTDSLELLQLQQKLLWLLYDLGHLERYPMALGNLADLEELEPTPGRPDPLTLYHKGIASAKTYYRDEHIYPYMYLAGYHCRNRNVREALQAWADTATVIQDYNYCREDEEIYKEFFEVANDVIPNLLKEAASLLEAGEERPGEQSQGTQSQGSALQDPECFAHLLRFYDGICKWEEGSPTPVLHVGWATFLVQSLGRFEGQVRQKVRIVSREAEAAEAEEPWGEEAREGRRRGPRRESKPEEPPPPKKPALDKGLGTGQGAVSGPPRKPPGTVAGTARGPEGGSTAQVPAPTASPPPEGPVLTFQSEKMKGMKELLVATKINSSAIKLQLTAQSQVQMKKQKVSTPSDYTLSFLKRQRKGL

[2] = test system: MLL-AF9 transformed BMC; test: Growth curves experiments in transformed BMC; assay type: cell-based; conditions: MLL-AF9 BMC vs Hoxa9/Meis1 transformed BMC (negative control), FIG. 5
[3] = test system: MLL-AF9 BMC; test: Differentiation (CD11b expression, cell morphology); assay type: cell-based; conditions: CD11b expression level and cell morphology, FIG. 9
[4] = test system: Hoxa9 and Meis 1; test: qRT-PCR of MLL fusion downstream targets; assay type: cell-based; conditions: qRT-PCR in MLL-AF9 BMC, FIG. 10
Excerpt: FIG. 10. […] B. qRT-PCR performed in MLL-AF9 BMC for Compound 175.

[5] = test system: human MLL leukemia cell lines; test: Growth inhibition of human MLL leukemia cell lines; assay type: cell-based; conditions: FIG. 13 A
[6] = test system: non-MLL leukemia cell lines; test: Growth inhibition of non-MLL leukemia cell lines; assay type: cell-based; conditions: FIG. 13 B
[7] = molecular target: T2, menin-MLL interaction (Homo sapiens, UniProt O00255); test: biochemical
T2 sequence (O00255 1-610): T1 sequence (O00255 1-610)
Excerpt: Compounds that inhibit the interaction decrease the fluorescence anisotropy which is being used as a read-out for compound screening and for IC50 determination.

[8] = test system: MLL-AF9 transformed mouse bone marrow cells (BMC); test: MTT cell viability assay in transformed BMC; assay type: cell-based; conditions: 72 h incubation, E2H-HLF transformed BMC as negative control, FIG. 3
[9] = test system: MLL-AF9 BMC; test: Colony formation assay; assay type: cell-based; conditions: each round 7 days, FIG. 7
Excerpt: FIG. 7. […] Each round takes 7 days.

[10] = test system: human MLL leukemia cell lines; test: MTT cell viability assay in human leukemia cell lines; assay type: cell-based; conditions: 3 days of incubation, FIG. 11
[11] = test system: MLL-AF9 leukemia; test: In vivo efficacy in mice model of MLL-AF9 leukemia; conditions: once daily i.p. injections of 75 mg/kg dose, FIG. 18
Excerpt: FIG. 18. In vivo efficacy studies with compound 108 in mice model of MLL-AF9 leukemia.

| SMILES | inhibition of the menin-MLL-AF9 interaction [1] | selectivity in growth curves [2] | differentiation [3] | expression of Hoxa9 and Meis 1 [4] | growth inhibition [5] | growth inhibition [6] | pIC50 [7] | inhibition of proliferation [8] | morphology of colonies [9] | growth inhibition [10] | survival of leukemic mice [11] |
| --- | --- | --- | --- | --- | --- | --- | --- | --- | --- | --- | --- |
| N#Cc1cc2cc(CN3CCC(Nc4ncnc5sc(CC(F)(F)F)cc45)CC3)ccc2[nH]1 [Compound 175, 5-((4-((6-(2,2,2-trifluoroethyl)thieno[2,3-d]pyrimidin-4-yl)amino)piperidin-1-yl)methyl)-1H-indole-2-carbonitrile] | inhibition of the menin-MLL-AF9 interaction | great selectivity of the compound towards MLL fusion protein transformed cells | Differentiation induced | downregulate expression of downstream targets of MLL fusion proteins | selectively inhibits growth of human MLL leukemia cell lines | limited effect | > 7.00 | – | – | – | – |
| FC(F)(F)Cc1cc2c(NC3CCN(Cc4ccccc4)CC3)ncnc2s1 [Compound 108] | inhibition of the menin-MLL-AF9 interaction | – | – | downregulate expression of downstream targets of MLL fusion proteins | – | – | 6.30 to 7.00 | selectively inhibit proliferation of MLL leukemia cells | changes morphology of colonies | selectively inhibit growth of human MLL leukemia cell lines | Increase in survival of leukemic mice |
